Measurements published in ChEMBL document CHEMBL2177079, “Free-Wilson and structural approaches to co-optimizing human and rodent isoform potency for 11β-hydroxysteroid dehydrogenase type 1 (11β-HSD1) inhibitors” (J Med Chem, 2012).

Target: 11-beta-hydroxysteroid dehydrogenase 1 (Mus musculus, UniProt P50172)
Assay: Inhibition of mouse 11beta-HSD1 by HTRF assay
Settings: not given

Chain of 11-beta-hydroxysteroid dehydrogenase 1 (Mus musculus, UniProt P50172) (P50172 whole entry): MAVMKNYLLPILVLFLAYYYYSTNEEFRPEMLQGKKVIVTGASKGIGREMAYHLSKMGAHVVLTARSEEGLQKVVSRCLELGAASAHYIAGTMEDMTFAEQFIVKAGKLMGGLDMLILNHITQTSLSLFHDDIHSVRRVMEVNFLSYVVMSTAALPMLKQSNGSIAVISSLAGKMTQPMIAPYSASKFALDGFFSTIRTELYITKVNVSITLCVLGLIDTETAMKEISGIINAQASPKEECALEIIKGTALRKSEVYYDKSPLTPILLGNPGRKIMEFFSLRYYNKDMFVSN

SMILES	IC50 [nM]
CC(C)(O)CNc1ncc(C(=O)N[C@H]2C3CC4CC2C[C@](O)(C4)C3)c(C2CCCC2)n1	48
O=C(N[C@H]1C2CC3CC1C[C@](O)(C3)C2)c1cnc(NC2COC2)nc1C1CCCC1	66
O=C(N[C@H]1C2CC3CC1C[C@](O)(C3)C2)c1cnc(N[C@H]2CCNC2=O)nc1C1CCCC1	55
O=C(N[C@H]1C2CC3CC1C[C@](O)(C3)C2)c1cnc(N[C@@H]2CCOC2)nc1OC1CCC1	16
CC(=O)N1CCC(Nc2ncc(C(=O)N[C@H]3C4CC5CC3C[C@](O)(C5)C4)c(C3CCCC3)n2)CC1	84
O=C(N[C@H]1C2CC3CC1C[C@](O)(C3)C2)c1cnc(NC[C@@H]2CCCO2)nc1C1CCCC1 (single isomer, unassigned)	25
C[C@H](O)CNc1ncc(C(=O)N[C@H]2C3CC4CC2C[C@](O)(C4)C3)c(C2CCCC2)n1	42
O=C(N[C@H]1C2CC3CC1C[C@](O)(C3)C2)c1cnc(N[C@H]2CCC[C@H]2O)nc1C1CCCC1	36
O=C(N[C@H]1C2CC3CC1C[C@](O)(C3)C2)c1cnc(NC[C@H]2CCCO2)nc1C1CCCC1	42
O=C(N[C@H]1C2CC3CC1C[C@](O)(C3)C2)c1cnc(NC2COC2)nc1OC1CCC1	33
C[C@@H](O)CNc1ncc(C(=O)N[C@H]2C3CC4CC2C[C@](O)(C4)C3)c(C2CCCC2)n1	67
O=C(N[C@H]1C2CC3CC1C[C@](O)(C3)C2)c1cnc(NC2COC2)nc1C1CC1	38
O=C(N[C@H]1C2CC3CC1C[C@](O)(C3)C2)c1cnc(NC2CCS(=O)(=O)CC2)nc1OC1CCC1	31
O=C(N[C@H]1C2CC3CC1C[C@](O)(C3)C2)c1cnc(NC2CCOCC2)nc1C1CC1	22
CC(C)(CO)Nc1ncc(C(=O)N[C@H]2C3CC4CC2C[C@](O)(C4)C3)c(C2CCCC2)n1	32
O=C(N[C@H]1C2CC3CC1C[C@](O)(C3)C2)c1cnc(NC2CCOCC2)nc1C1CCCC1	38

SMILES	IC50 [nM]
CC(C)(CO)Nc1ncc(C(=O)N[C@H]2C3CC4CC2C[C@](O)(C4)C3)c(C2CC2)n1	20
O=C(N[C@H]1C2CC3CC1C[C@](O)(C3)C2)c1cnc(NCCO)nc1C1CCCC1	179
CC(=O)N1CC[C@@H](Nc2ncc(C(=O)N[C@H]3C4CC5CC3C[C@](O)(C5)C4)c(C3CCCC3)n2)C1	50
O=C1C[C@H](CNc2ncc(C(=O)N[C@H]3C4CC5CC3C[C@](O)(C5)C4)c(C3CCCC3)n2)CN1	85
O=C(N[C@H]1C2CC3CC1C[C@](O)(C3)C2)c1cnc(N[C@@H]2CCOC2)nc1C1CCC1	37
O=C(N[C@H]1C2CC3CC1C[C@](O)(C3)C2)c1cnc(NC2CCS(=O)(=O)CC2)nc1C1CCCC1	64
O=C(N[C@H]1C2CC3CC1C[C@](O)(C3)C2)c1cnc(NCCO)nc1OC1CCC1	31
CN(C)C(=O)CNc1ncc(C(=O)N[C@H]2C3CC4CC2C[C@](O)(C4)C3)c(C2CCCC2)n1	163
O=C(N[C@H]1C2CC3CC1C[C@](O)(C3)C2)c1cnc(N[C@@H]2CCOC2)nc1C1CCCC1	25
CC(C)(O)CNc1ncc(C(=O)N[C@H]2C3CC4CC2C[C@](O)(C4)C3)c(C2CC2)n1	31
O=C(N[C@H]1C2CC3CC1C[C@](O)(C3)C2)c1cnc(N[C@H]2CCOC2)nc1OC1CCC1	22
CC(C)Oc1nc(NC2COC2)ncc1C(=O)N[C@H]1C2CC3CC1C[C@](O)(C3)C2	53
O=C(N[C@H]1C2CC3CC1C[C@](O)(C3)C2)c1cnc(NC2CCOCC2)nc1OC1CCC1	19
O=C1CC[C@@H](Nc2ncc(C(=O)N[C@H]3C4CC5CC3C[C@](O)(C5)C4)c(C3CCCC3)n2)CN1	133
O=C(N[C@H]1C2CC3CC1C[C@](O)(C3)C2)c1cnc(N[C@H]2CCOC2)nc1C1CCC1	42
COCCNc1ncc(C(=O)N[C@H]2C3CC4CC2C[C@](O)(C4)C3)c(C2CCCC2)n1	73

Target: 11-beta-hydroxysteroid dehydrogenase 1 (Homo sapiens, UniProt P28845)
Assay: Inhibition of human 11beta-HSD1 by HTRF assay
Settings: not given

Chain of 11-beta-hydroxysteroid dehydrogenase 1 (Homo sapiens, UniProt P28845) (P28845 whole entry): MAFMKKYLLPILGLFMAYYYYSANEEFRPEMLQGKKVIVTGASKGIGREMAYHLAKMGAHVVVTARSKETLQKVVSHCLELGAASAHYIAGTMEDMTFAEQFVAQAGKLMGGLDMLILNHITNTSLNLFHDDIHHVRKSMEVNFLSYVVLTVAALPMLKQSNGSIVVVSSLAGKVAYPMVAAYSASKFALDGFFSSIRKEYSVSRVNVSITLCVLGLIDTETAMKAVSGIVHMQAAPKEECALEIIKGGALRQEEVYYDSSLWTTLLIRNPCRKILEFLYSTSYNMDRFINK

SMILES	IC50 [nM]
O=C(N[C@H]1C2CC3CC1C[C@](O)(C3)C2)c1cnc(N[C@@H]2CCOC2)nc1C1CCCC1	21

Test system: not listed separately
Assay: Oral bioavailability in Han Wistar rat at 7.4 to 14.7 umol/kg
Type: ADME, organism-based
Settings: Han Wistar, in vivo

SMILES	bioavailability [%]
CC(C)(O)CNc1ncc(C(=O)N[C@H]2C3CC4CC2C[C@](O)(C4)C3)c(C2CCCC2)n1	33
O=C(N[C@H]1C2CC3CC1C[C@](O)(C3)C2)c1cnc(N[C@@H]2CCOC2)nc1OC1CCC1	99
CC(=O)N1CCC(Nc2ncc(C(=O)N[C@H]3C4CC5CC3C[C@](O)(C5)C4)c(C3CCCC3)n2)CC1	46
CC(C)Oc1nc(N[C@@H]2CCOC2)ncc1C(=O)N[C@H]1C2CC3CC1C[C@](O)(C3)C2	62
CC(C)Oc1nc(N[C@H]2CCOC2)ncc1C(=O)N[C@H]1C2CC3CC1C[C@](O)(C3)C2	83
O=C(N[C@H]1C2CC3CC1C[C@](O)(C3)C2)c1cnc(N[C@H]2CCC[C@H]2O)nc1C1CCCC1	17
O=C(N[C@H]1C2CC3CC1C[C@](O)(C3)C2)c1cnc(NC2COC2)nc1OC1CCC1	19
C[C@@H](O)CNc1ncc(C(=O)N[C@H]2C3CC4CC2C[C@](O)(C4)C3)c(C2CCCC2)n1	68
O=C(N[C@H]1C2CC3CC1C[C@](O)(C3)C2)c1cnc(NC2CCOCC2)nc1C1CC1	53
CC(C)(O)CNc1ncc(C(=O)N[C@H]2C3CC4CC2C[C@](O)(C4)C3)c(C2CCC2)n1	86
CC(=O)N1CC[C@@H](Nc2ncc(C(=O)N[C@H]3C4CC5CC3C[C@](O)(C5)C4)c(C3CCCC3)n2)C1	18
O=C1C[C@H](CNc2ncc(C(=O)N[C@H]3C4CC5CC3C[C@](O)(C5)C4)c(C3CCCC3)n2)CN1	9
O=C(N[C@H]1C2CC3CC1C[C@](O)(C3)C2)c1cnc(N[C@@H]2CCOC2)nc1C1CCC1	99
O=C(N[C@H]1C2CC3CC1C[C@](O)(C3)C2)c1cnc(N[C@H]2CCOC2)nc1C1CC1	73
O=C(N[C@H]1C2CC3CC1C[C@](O)(C3)C2)c1cnc(NCCO)nc1OC1CCC1	51
O=C(N[C@H]1C2CC3CC1C[C@](O)(C3)C2)c1cnc(N[C@@H]2CCOC2)nc1C1CCCC1	63
O=C(N[C@H]1C2CC3CC1C[C@](O)(C3)C2)c1cnc(N[C@H]2CCOC2)nc1OC1CCC1	99
CC(C)Oc1nc(NC2COC2)ncc1C(=O)N[C@H]1C2CC3CC1C[C@](O)(C3)C2	57
O=C(N[C@H]1C2CC3CC1C[C@](O)(C3)C2)c1cnc(NC2CCOCC2)nc1OC1CCC1	83
O=C(N[C@H]1C2CC3CC1C[C@](O)(C3)C2)c1cnc(N[C@H]2CCOC2)nc1C1CCC1	82

Test system: not listed separately
Assay: Lipophilicity, log D at pH 7.4
Type: physicochemical
Settings: buffer

SMILES	logD
CC(C)(O)CNc1ncc(C(=O)N[C@H]2C3CC4CC2C[C@](O)(C4)C3)c(C2CCCC2)n1	2.3
O=C(N[C@H]1C2CC3CC1C[C@](O)(C3)C2)c1cnc(NC2COC2)nc1C1CCCC1	2.1
O=C(N[C@H]1C2CC3CC1C[C@](O)(C3)C2)c1cnc(N[C@H]2CCNC2=O)nc1C1CCCC1	0.9
O=C(N[C@H]1C2CC3CC1C[C@](O)(C3)C2)c1cnc(N[C@@H]2CCOC2)nc1OC1CCC1	2.9
CC(=O)N1CCC(Nc2ncc(C(=O)N[C@H]3C4CC5CC3C[C@](O)(C5)C4)c(C3CCCC3)n2)CC1	1.9
O=C(N[C@H]1C2CC3CC1C[C@](O)(C3)C2)c1cnc(NC[C@@H]2CCCO2)nc1C1CCCC1 (single isomer, unassigned)	2.7
C[C@H](O)CNc1ncc(C(=O)N[C@H]2C3CC4CC2C[C@](O)(C4)C3)c(C2CCCC2)n1	2
CC(C)Oc1nc(N[C@@H]2CCOC2)ncc1C(=O)N[C@H]1C2CC3CC1C[C@](O)(C3)C2	2.7
O=C(N[C@H]1C2CC3CC1C[C@](O)(C3)C2)c1cnc(NCCO)nc1C1CCC1	1.3
CC(C)Oc1nc(N[C@H]2CCOC2)ncc1C(=O)N[C@H]1C2CC3CC1C[C@](O)(C3)C2	2.5
O=C(N[C@H]1C2CC3CC1C[C@](O)(C3)C2)c1cnc(N[C@H]2CCC[C@H]2O)nc1C1CCCC1	2.7
O=C(N[C@H]1C2CC3CC1C[C@](O)(C3)C2)c1cnc(NC[C@H]2CCCO2)nc1C1CCCC1	2.8
O=C(N[C@H]1C2CC3CC1C[C@](O)(C3)C2)c1cnc(NC2COC2)nc1OC1CCC1	2.6
C[C@@H](O)CNc1ncc(C(=O)N[C@H]2C3CC4CC2C[C@](O)(C4)C3)c(C2CCCC2)n1	2
O=C(N[C@H]1C2CC3CC1C[C@](O)(C3)C2)c1cnc(NC2COC2)nc1C1CC1	1.1
O=C(N[C@H]1C2CC3CC1C[C@](O)(C3)C2)c1cnc(NC2CCS(=O)(=O)CC2)nc1OC1CCC1	2.1
O=C(N[C@H]1C2CC3CC1C[C@](O)(C3)C2)c1cnc(NC2CCOCC2)nc1C1CC1	1.8
CC(C)(CO)Nc1ncc(C(=O)N[C@H]2C3CC4CC2C[C@](O)(C4)C3)c(C2CCCC2)n1	2.5
O=C(N[C@H]1C2CC3CC1C[C@](O)(C3)C2)c1cnc(NC2CCOCC2)nc1C1CCCC1	2.6
CC(C)(O)CNc1ncc(C(=O)N[C@H]2C3CC4CC2C[C@](O)(C4)C3)c(C2CCC2)n1	1.8

SMILES	logD
CC(C)(CO)Nc1ncc(C(=O)N[C@H]2C3CC4CC2C[C@](O)(C4)C3)c(C2CC2)n1	1.8
O=C(N[C@H]1C2CC3CC1C[C@](O)(C3)C2)c1cnc(NCCO)nc1C1CCCC1	1.8
CC(=O)N1CC[C@@H](Nc2ncc(C(=O)N[C@H]3C4CC5CC3C[C@](O)(C5)C4)c(C3CCCC3)n2)C1	1.8
O=C(N[C@H]1C2CC3CC1C[C@](O)(C3)C2)c1cnc(NC2CCS(=O)(=O)CC2)nc1C1CCC1	1.1
O=C1C[C@H](CNc2ncc(C(=O)N[C@H]3C4CC5CC3C[C@](O)(C5)C4)c(C3CCCC3)n2)CN1	1.4
O=C(N[C@H]1C2CC3CC1C[C@](O)(C3)C2)c1cnc(N[C@@H]2CCOC2)nc1C1CCC1	2
O=C(N[C@H]1C2CC3CC1C[C@](O)(C3)C2)c1cnc(N[C@H]2CCOC2)nc1C1CC1	1.7
O=C(N[C@H]1C2CC3CC1C[C@](O)(C3)C2)c1cnc(NC2CCS(=O)(=O)CC2)nc1C1CCCC1	1.6
O=C(N[C@H]1C2CC3CC1C[C@](O)(C3)C2)c1cnc(NCCO)nc1OC1CCC1	2.5
CN(C)C(=O)CNc1ncc(C(=O)N[C@H]2C3CC4CC2C[C@](O)(C4)C3)c(C2CCCC2)n1	1.4
O=C(N[C@H]1C2CC3CC1C[C@](O)(C3)C2)c1cnc(N[C@@H]2CCOC2)nc1C1CCCC1	2.4
CC(C)(O)CNc1ncc(C(=O)N[C@H]2C3CC4CC2C[C@](O)(C4)C3)c(C2CC2)n1	1.5
O=C(N[C@H]1C2CC3CC1C[C@](O)(C3)C2)c1cnc(N[C@@H]2CCOC2)nc1C1CC1	1.6
O=C(N[C@H]1C2CC3CC1C[C@](O)(C3)C2)c1cnc(N[C@H]2CCOC2)nc1OC1CCC1	2.8
CC(C)Oc1nc(NC2COC2)ncc1C(=O)N[C@H]1C2CC3CC1C[C@](O)(C3)C2	2.2
O=C(N[C@H]1C2CC3CC1C[C@](O)(C3)C2)c1cnc(NC2CCOCC2)nc1OC1CCC1	3.2
O=C1CC[C@@H](Nc2ncc(C(=O)N[C@H]3C4CC5CC3C[C@](O)(C5)C4)c(C3CCCC3)n2)CN1	1.6
O=C(N[C@H]1C2CC3CC1C[C@](O)(C3)C2)c1cnc(N[C@H]2CCOC2)nc1C1CCC1	1.8
COCCNc1ncc(C(=O)N[C@H]2C3CC4CC2C[C@](O)(C4)C3)c(C2CCCC2)n1	2.4
